Results taken from US8796267B2, “Oxazolidinone derivatives and methods of use” (Concert Pharmaceuticals, Inc., priority 2006, dated 2014).
In brackets after ≈: the same amount, converted by molar mass. Like-named read-outs stand apart in the source and are kept apart here.

How the values were obtained:
[1] = test system: mtDNA-encoded protein synthesis in HepG2 cells; test: Mitochondria Toxicity Study (Complex IV/Frataxin ratio, dipstick); details: for IC50: Homo sapiens, HepG2; for mitochondria toxicity: in words, versus linezolid
[2] = in words; cited from earlier work
S. pyogenes = test: MIC assay (broth microdilution); format: cell-based; details: Streptococcus pyogenes; read-out: potency (MIC90)
Description: (§1) The three test compounds were stored at 4° C. until tested.
(§2) All test articles and drugs were dissolved in 50% dimethyl sulfoxide (DMSO) at one-half the volume needed to prepare the stock solution. Once the compound was in solution, the rest of the volume was added as sterile deionized water. The drug solutions were allowed to stand at room temperature for 1 hr to allow for auto-sterilization. Stock solutions were prepared at 40-fold the highest final test concentration in the test plate. The final concentration of DMSO in the assay was 2.5%.
(§3) The test organisms were obtained from clinical laboratories; quality control cultures were from the American Type Culture Collection. The test groups included Staphylococcus aureus, Staphylococcus epidermidis, Enterococcus faecalis, Enterococcus faecium, Streptococcus pneumoniae, Streptococcus pyogenes, Streptococcus agalactiae, Haemophilus influenzae, and Moraxella catarrhalis. Various phenotypic susceptibility/resistance groups were represented. Organisms received were streaked for isolation on agar medium appropriate to each organism. Colonies were picked by swab from the isolation plates and put into suspension in the appropriate media containing a cryoprotectant. The suspensions were aliquoted into cryogenic vials and maintained at −80° C. The isolates were thawed and passaged on the appropriate agar medium: Trypticase Soy agar (TSA) for most organisms, TSA plus 5% sheep blood for streptococci, and chocolate agar for Haemophilus. The plates were incubated overnight at 35° C. Haemophilus plates were incubated in the presence of CO2.
(§4) The medium employed for the MIC assay was Mueller Hinton II Broth (MHB II-Becton Dickinson, Sparks, Md. #212322, Lot #7143673) for most of the organisms. MHB II was supplemented with 2% lysed horse blood (Cleveland Scientific Lot #H93152) to accommodate the growth of Streptococcus pneumoniae. Haemophilus influenzae was tested in Haemophilus Test Medium. On the day of the test, the medium to be used in the daptomycin row of the daughters was supplemented with calcium ions to the final concentration of 50 μg/mL, taking into account the calcium that was already present in the medium.
(§5) The MIC assay method followed the procedure described by the Clinical and Laboratory Standards Institute and employed automated liquid handlers to conduct serial dilutions and liquid transfers. Automated liquid handlers included the Multidrop 384, Labsystems, Helsinki, Finland; Biomek 2000 and Multimek 96, Beckman Coulter, Fullerton Calif. The wells of standard 96-well microdilution plates (Falcon 3918) were filled with 150 μL of DMSO:deionized H2O (1:1) on the Multidrop 384. The drugs were dispensed into Column 1 of a deep well plate. The Biomek 2000 transferred 150 μL of each drug into one well in Column 1 of a “mother plate” and completed serial transfers through Column 11 in the mother plates. The wells of Column 12 contained no drug and were the organism growth control wells.
(§6) The daughter plates were loaded with 85 μL of the appropriate test media described above using the Multidrop 384. The daughter plates were prepared on the Multimek 96 instrument which transferred 5 μL of drug solution from each well of a mother plate to each corresponding well of each daughter plate in a single step.
(§7) Standardized inoculum of each organism was prepared per CLSI methods (Clinical and Laboratory Standards Institute. Methods for Dilution Antimicrobial Susceptibility Tests for Bacteria That Grow Aerobically; Approved Standard—Seventh Edition. Clinical and Laboratory Standards Institute document M7-A7 [ISBN 1-56238-587-9]. Clinical and Laboratory Standards Institute, 940 West Valley Road, Suite 1400, Wayne, Pa. 19087-1898 USA, 2006). Suspensions were prepared in MHB to equal a 0.5 McFarland standard. The suspensions were diluted 1:19 in broth appropriate to the organism. […]

community-acquired MRSA = test: MIC assay (broth microdilution); format: cell-based; details: Staphylococcus aureus, clinical isolates
Description: as §1, §2, §3, §4, §5, §6, §7

[3] = test system: methicillinsensitive S. aureus (MSSA); test: MIC assay (broth microdilution); format: cell-based; details: Staphylococcus aureus, clinical isolates
Description: as §1, §2, §3, §4, §5, §6, §7

H. influenzae = test: MIC assay (broth microdilution); format: cell-based, Haemophilus influenzae; details: in words
Description: as §1, §2, §3
The medium employed for the MIC assay was Mueller Hinton II Broth (MHB II-Becton Dickinson, Sparks, Md. #212322, Lot #7143673) for most of the organisms. MHB II was supplemented with 2% lysed horse blood (Cleveland Scientific Lot #H93152) to accommodate the growth of Streptococcus pneumoniae. Haemophilus influenzae was tested in Haemophilus Test Medium. […]

[4] = test system: antibiotic resistant Grampositive pathogens including MRSA, VRE, and PRSP; test: In vitro antibacterial activity, overall conclusion; format: cell-based; details: in words
Description: as §1, §2
as §3, with “The isolates were thawed and passaged on the appropriate agar medium: Trypticase Soy agar (TSA) for most organisms, TSA plus 5% sheep blood for streptococci, and chocolate agar for Haemophilus. The plates were incubated overnight at 35° C. Haemophilus plates were incubated in the presence of CO2.” left out

[5] = in words
Description: (§8) Four chimpanzees (two male and two female) were used in the study. One male and one female were used for the intravenous study and one male and one female were used for the oral dosing study. All animals were fasted overnight prior to dosing. For all studies animals were sedated with ketamine (approx. 10 mg/ml) or telazol (approx. 5 mg/ml) prior to dosing. […] Intravenous doses were administered (150 ml at 2 mg/ml combined drugs) by infusion over a 30 minute period. Oral doses were administered in a volume of 150 ml at 2 mg/ml combined drugs.
(§9) For the intravenous study, a 4.5 ml aliquot of blood was taken from each animal prior to the start of infusion, 15 minutes after the start of infusion, and immediately before the end of infusion. Additional samples were taken at 6, 15, 30, and 60 minutes and 1.5, 2, 4, 6, 8 and 24 hours following infusion. For the oral study, 4.5 ml aliquots of blood were taken from each animal prior to doing and then at 15, 20 and 60 minutes and 1.5, 2, 4, 6, 8 and 24 hours post dosing. All blood samples were collected into vacutainer tubes containing sodium heparin as an anticoagulant, sufficiently mixed and stored on wet ice. The samples were centrifuged within 1 hour of collection and the plasma collected and frozen at −70° C. until analysis. Urine was also collected from each animal over a 24 hour period following dosing.
Urine samples were similarly analyzed. […]

in vivo [6] = details: 150 mg; for AUC(0-t): both, chimpanzee, po; for half-life: iv
Description: The dosing solution is then filtered through a 0.22 μm filter prior to dosing.
as §8, §9
Chimp plasma sample (100 μL) was mixed with 300 μL internal standard solution prior to LC-MS/MS analysis. The internal standard was 250 ng/mL haloperidol in acetonitrile/water (90/10, v/v). After protein precipitation, 10 L supernatant was injected to a Zorbax SB-C8 (Rapid Resolution) column (2.1×30 mm, 3.5 μm). The initial mobile phase condition was 100% A (water with 0.1% formic acid) and 0% B (acetonitrile with 0.1% formic acid) with a flow rate at 0.5 mL/min. Mobile phase B was allowed to reach 90% within 2 minutes and held for 1 minute before ramping back 0% at 3.2 minutes. The overall run time was six minutes.

M. catarrhalis = test: MIC assay (broth microdilution); format: cell-based; details: Moraxella catarrhalis; 30 isolates
Description: as §1, §2, §3, §4, §5, §6, §7

S. agalactiae = test: MIC assay (broth microdilution); format: cell-based; details: Streptococcus agalactiae
Description: as §1, §2, §3, §4, §5, §6, §7

[7] = test system: methicillin-resistant S. aureus (MRSA); test: MIC assay (broth microdilution); format: cell-based; details: Staphylococcus aureus, clinical isolates
Description: as §1, §2, §3, §4, §5, §6, §7

[8] = test system: methicillin-resistant S. epidermidis (MRSE); test: MIC assay (broth microdilution); format: cell-based; details: Staphylococcus epidermidis, clinical isolates
Description: as §1, §2, §3, §4, §5, §6, §7

[9] = test system: methicillin-sensitive S. epidermidis (MSSE); test: MIC assay (broth microdilution); format: cell-based; details: Staphylococcus epidermidis; clinical isolates
Description: as §1, §2, §3, §4, §5, §6, §7

[10] = test system: penicillin-intermediate S. pneumoniae; test: MIC assay (broth microdilution); format: cell-based; details: Streptococcus pneumoniae; 27 isolates
Description: as §1, §2, §3, §4, §5, §6, §7

[11] = test system: penicillin-resistant S. pneumoniae; test: MIC assay (broth microdilution); format: cell-based; details: Streptococcus pneumoniae; 28 isolates
Description: as §1, §2, §3, §4, §5, §6, §7

[12] = test system: penicillin-sensitive S. pneumoniae; test: MIC assay (broth microdilution); format: cell-based; details: Streptococcus pneumoniae; 27 isolates
Description: as §1, §2, §3, §4, §5, §6, §7

[13] = test system: vancomycin-resistant E. faecalis; test: MIC assay (broth microdilution); format: cell-based; details: Enterococcus faecalis; clinical isolates
Description: as §1, §2, §3, §4, §5, §6, §7

[14] = test system: vancomycin-resistant E. faecium; test: MIC assay (broth microdilution); format: cell-based; details: Enterococcus faecium; clinical isolates
Description: as §1, §2, §3, §4, §5, §6, §7

[15] = test system: vancomycin-sensitive E. faecalis; test: MIC assay (broth microdilution); format: cell-based; details: Enterococcus faecalis; clinical isolates
Description: as §1, §2, §3, §4, §5, §6, §7

[16] = test system: vancomycin-sensitive E. faecium; test: MIC assay (broth microdilution); format: cell-based; details: Enterococcus faecium; printed only as 'a value'
Description: as §1, §2, §3, §4, §5, §6, §7

[17] = humans; cited from earlier work
[18] = cited from earlier work
[19] = test system: Vancomycin-Resistant Enterococcus faecium; Staphylococcus aureus; Streptococcus pneumoniae; Streptococcus pyogenes; Streptococcus agalactiae infections; details: clinical trials, in words; cited from earlier work
in vivo [20] = details: male, Sprague Dawley, rat, po, 5 mg/kg
Description: The combo dose was prepared by mixing both by 1:1 to yield a concentration of 5 mg/mL for each compound (pH ˜6) for intravenous and oral administration. The obtained solution was clear and colourless.
Male Sprague Dawley rats (body weight: 170 g to 220 g) were used in this study. Before the pharmacokinetic studies, animals were randomly assigned to the treatment groups.
The plasma samples and the dose formulation were stored at −20° C. until bioanalysis. Sample Analysis
Plasma samples (0.1 mL) were transferred to Eppendorff tube, then 20 μL methanol, and 300 μL IS solution (50 ng/mL) were added to it. After Vortexing for 1 min and centrifuging for 5 min at 15,000 rpm, 5 μL of supernatant was injected into LC/MS/MS.
The concentrations in plasma below the limit of quantitation (LOQ=5 ng/mL) were designated as zero. The pharmacokinetic data analysis was performed using noncompartmental analysis modules in WinNonlin2.0.

[21] = test system: Cyp isoforms (1A2; 2C9; 2C19; 2D6; 2E1; 3A4); details: cited from earlier work

| MIC90 (S. pyogenes) [mg/L] | MIC90 (community-acquired MRSA) [mg/L] | MIC90 [3] [mg/L] | AUC(0-t) (in vivo [6]) [µg·h/mL] | half-life (in vivo [6]; female) [h] | half-life (in vivo [6]; male) [h] | MIC90 (M. catarrhalis) [mg/L] | MIC90 (S. agalactiae) [mg/L] | MIC90 [7] [mg/L] | MIC90 [8] [mg/L] | MIC90 [9] [mg/L] | MIC90 [10] [mg/L] | MIC90 [11] [mg/L] | MIC90 [12] [mg/L] | MIC90 [13] [mg/L] | Structure (SMILES) | IC50 [1] [µM] | mitochondria toxicity [1] | activity of metabolite [2] | activity (H. influenzae) | activity against antibiotic resistant Grampositive pathogens [4] | also measured |
| --- | --- | --- | --- | --- | --- | --- | --- | --- | --- | --- | --- | --- | --- | --- | --- | --- | --- | --- | --- | --- | --- |
|  |  |  |  |  |  |  |  |  |  |  |  |  |  |  | [2H]C1([2H])CN(c2ccc(N3C[C@H](CNC(C)=O)OC3=O)cc2F)CC([2H])([2H])O1 [Compound 103, (S)—N-((3-(3-fluoro-4-(4-morpholino-2,2,6,6-d4)-phenyl)-2-oxooxazolidin-5-yl)methyl)acetamide] | 9.7 | comparable to that of linezolid |  |  |  |  |
|  |  |  |  |  |  |  |  |  |  |  |  |  |  |  | CC(=O)NCC1CN(c2ccc(N(CCO)CC(=O)O)c(F)c2)C(=O)O1 (stereo not shown) [Compound M4] |  |  | inactive |  |  |  |
| 1 (≈ 2.88 µM) | 2 (≈ 5.76 µM) | 4 (≈ 11.5 µM) | 16.4 | 6.4 | 6.2 |  |  |  |  |  |  |  |  |  | [2H]C([2H])(NC(C)=O)[C@H]1CN(c2ccc(N3C([2H])([2H])C([2H])([2H])OC([2H])([2H])C3([2H])[2H])c(F)c2)C(=O)O1 [Compound 100] | 9.3 | comparable to that of linezolid |  | poor activity | good activity | rate of metabolism versus linezolid (chimpanzee studies, in words): more slowly metabolized than linezolid; amount of deuterated M6 metabolite versus linezolid M6 metabolite ([5]; chimpanzee urine): essentially the same; amount excreted intact in the urine versus linezolid ([5]; chimpanzee, regardless of route or sex): approximately twice as much |
|  |  |  |  |  |  |  |  |  |  |  |  |  |  |  | CC(=O)NCC1CN(c2ccc(NCCOCC(=O)O)c(F)c2)C(=O)O1 (stereo not shown) [Compound M6] |  |  | inactive |  |  |  |
| 1 (≈ 2.96 µM) | 2 (≈ 5.93 µM) | 4 (≈ 11.9 µM) | 11.3 | 4.5 | 4.5 | 8 (≈ 23.7 µM) | 2 (≈ 5.93 µM) | 4 (≈ 11.9 µM) | 2 (≈ 5.93 µM) | 2 (≈ 5.93 µM) | 2 (≈ 5.93 µM) | 2 (≈ 5.93 µM) | 2 (≈ 5.93 µM) | 2 (≈ 5.93 µM) | CC(=O)NC[C@H]1CN(c2ccc(N3CCOCC3)c(F)c2)C(=O)O1 [Linezolid, (S)—N-[[3-[3-Fluoro-4-(4-morpholinyl)phenyl]-2-oxo-5-oxazolidinyl]methyl]-acetamide, reference compound] | 7.8 |  |  | poor activity |  | MIC90 [14]: 2 mg/L (≈ 5.93 µM); MIC90 [15]: 2 mg/L (≈ 5.93 µM); MIC90 [16]: 2 mg/L (≈ 5.93 µM); administered dose found in the urine as the parent compound [17]: Approximately 35%; dose accounted for as the two metabolites (M4, M6) [17]: 50%; tolerability ([18]; 725 mg three times a day, increase in serum creatinine): could not be tolerated; myelosuppression ([18]; patients receiving linezolid, reversible): Myelosuppression has been reported; efficacy in treatment of infections [19]: effective; Tmax (in vivo [20]): 0.83 ± 1.01 h; Cyp substrate, inhibitor or inducer [21]: not a substrate, inhibitor, or inducer |
| 1 (≈ 2.9 µM) | 2 (≈ 5.79 µM) | 4 (≈ 11.6 µM) |  |  |  | 4 (≈ 11.6 µM) | 2 (≈ 5.79 µM) | 4 (≈ 11.6 µM) | 2 (≈ 5.79 µM) | 2 (≈ 5.79 µM) | 2 (≈ 5.79 µM) | 2 (≈ 5.79 µM) | 2 (≈ 5.79 µM) | 2 (≈ 5.79 µM) | [2H]C1([2H])OC([2H])([2H])C([2H])([2H])N(c2ccc(N3C[C@H](CNC(C)=O)OC3=O)cc2F)C1([2H])[2H] [Compound 101] | 10.5 | comparable to that of linezolid |  | poor activity | good activity | MIC90 [14]: 2 mg/L (≈ 5.79 µM); MIC90 [15]: 2 mg/L (≈ 5.79 µM); MIC90 [16]: 2 mg/L (≈ 5.79 µM); % increase in AUC (both, chimpanzee, in vivo, iv): 31%; % increase in Half-life (both, chimpanzee, in vivo, iv): 30%; % increase in AUC (both, chimpanzee, in vivo, po): 41%; % increase in Cmax (both, chimpanzee, in vivo, po): 22% |
